Experimental data reported in US9765075B2, “Substituted bridged urea analogs as sirtuin modulators” (GLAXOSMITHKLINE LLC, priority 2013, dated 2017).
Where two headings read alike, the source gives them in different places.

Target: T1, SIRT1 (Homo sapiens, UniProt Q96EB6)
T1 sequence (Q96EB6 1-747): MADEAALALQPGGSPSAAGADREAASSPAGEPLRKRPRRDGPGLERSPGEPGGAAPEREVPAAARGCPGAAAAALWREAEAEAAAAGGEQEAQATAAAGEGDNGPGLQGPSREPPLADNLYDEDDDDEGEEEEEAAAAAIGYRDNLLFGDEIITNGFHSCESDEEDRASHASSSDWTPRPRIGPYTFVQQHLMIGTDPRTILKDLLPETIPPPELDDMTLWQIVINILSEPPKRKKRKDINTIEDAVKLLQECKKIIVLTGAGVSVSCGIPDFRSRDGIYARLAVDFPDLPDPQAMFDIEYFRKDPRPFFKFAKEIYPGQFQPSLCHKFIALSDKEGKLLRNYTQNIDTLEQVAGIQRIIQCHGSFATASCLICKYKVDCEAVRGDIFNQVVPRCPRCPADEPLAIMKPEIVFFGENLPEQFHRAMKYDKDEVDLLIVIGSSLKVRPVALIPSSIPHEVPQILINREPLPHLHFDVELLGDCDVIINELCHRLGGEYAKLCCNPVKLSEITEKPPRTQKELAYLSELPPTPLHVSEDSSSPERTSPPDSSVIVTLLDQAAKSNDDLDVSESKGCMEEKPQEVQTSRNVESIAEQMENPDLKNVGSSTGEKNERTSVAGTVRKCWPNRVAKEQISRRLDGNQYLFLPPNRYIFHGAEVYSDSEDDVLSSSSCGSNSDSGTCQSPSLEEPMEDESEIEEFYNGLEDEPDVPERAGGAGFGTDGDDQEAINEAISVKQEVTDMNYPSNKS
Assay: Trp mass spectrometry assay (SIRT1 activation)
Format: biochemical
Conditions: for Emax: percent maximum fold activation of SIRT1, read-out: Tryp % Fold Act
From the text: Mass spectrometry based assays were used to identify modulators of SIRT1 activity. […] The peptide was labeled with the fluorophore 5TMR (excitation 540 nm/emission 580 nm) at the C-terminus. The sequence of the peptide substrate was based on p53 with several modifications. In addition, the methionine residue naturally present in the sequence was replaced with the norleucine because the methionine may be susceptible to oxidation during synthesis and purification. The Trp based assay utilized a peptide having an amino acid residues as follows: Ac-R-H-K-K(Ac)-W-NH2 (SEQ ID NO: 2).
The Trp mass spectrometry assay was conducted as follows. 0.5 μM peptide substrate and 120 μM βNAD^+ were incubated with 10 nM SIRT1 for 25 minutes at 25° C. in a reaction buffer (50 mM HEPES pH 7.5, […] NaCl, 1 mM DTT, 0.05% BSA). The SIRT1 protein was obtained by cloning the SirT1 gene into a T7-promoter containing vector, which was then expressed in BL21(DE3) bacterial cells and purified as described in further detail below. Test compound was added at varying concentrations to this reaction mixture and the resulting reactions were monitored. After the 25 minute incubation with SIRT1, 10 μL of 10% formic acid was added to stop the reaction. The resulting reactions were sealed and frozen for later mass spec analysis. The relative SIRT1 activity was then determined by measuring the amount of 0-acetyl-ADP-ribose (OAADPR) formed (or, alternatively, the amount of deacetylated Trp peptide generated) by the NAD-dependent sirtuin deacetylation reaction in the presence of varying concentrations of the test compound versus control reactions lacking the test compound. The degree to which the test agent activated deacetylation by SIRT1 was expressed as EC1.5 (i.e., the concentration of compound required to increase SIRT1 activity by 50% over the control lacking test compound), and Percent Maximum Activation (i.e., the maximum activity relative to control (100%) obtained for the test compound).
A control for activation of sirtuin activity was conducted using 10 nM of sirtuin protein, with 1 μL of DMSO in place of compound, to determine the amount of deacetylation of the substrate at a given time point within the linear range of the assay. This time point was the same as that used for test compounds and, within the linear range, the endpoint represents a change in velocity.
For the above assay, SIRT1 protein was expressed and purified as follows. The SirT1 gene was cloned into a T7-promoter containing vector and transformed into BL21(DE3). The protein was expressed by induction with 1 mM IPTG as an N-terminal His-tag fusion protein at 18° C. overnight and harvested at 30,000×g. Cells were lysed with lysozyme in lysis buffer (50 mM Tris-HCl, 2 mM Tris[2-carboxyethyl] phosphine (TCEP), 10 μM ZnCl2, 200 mM NaCl) and further treated with sonication for 10 min for complete lysis. The protein was purified over a Ni-NTA column (Amersham) and fractions containing pure protein were pooled, concentrated and run over a sizing column (Sephadex S200 26/60 global). The peak containing soluble protein was collected and run on an Ion-exchange column (MonoQ). Gradient elution (200 mM-500 mM NaCl) yielded pure protein. This protein was concentrated and dialyzed against dialysis buffer (20 mM Iris-HCl, 2 mM TCEP) overnight. The protein was aliquoted and frozen at −80° C. until further use.

[1] = Trp mass spectrometry assay, EC1.5 = concentration giving 150% activation of SIRT1
[2] = concentration of test compound that results in 150% activation of SIRT1, Trp peptide substrate
[3] = Trp mass spectrometry assay, EC1.5 = concentration of test compound that results in 150% activation of SIRT1

Tryp AVG EC1.5 (μM) [1] | Emax (Trp mass spectrometry assay) [%] | Tryp AVG EC1.5 (μM) [2] | Emax (Trp peptide substrate) [%] | Tryp AVG EC1.5 (μM) [3] | SMILES
– | – | A (EC1.5<1 μM) | ≥ 150 | – | NCc1cn(-c2cccc(NC(=O)N3c4nc(-c5cccc(C(F)(F)F)c5)ccc4N4CC[C@H]3C4)c2)nn1 [Example 606]
– | – | B (EC1.5 1-25 μM) | ≥ 150 | – | COc1cc(NC(=O)N2c3nc(-c4cncc(C(F)(F)F)c4)ccc3N3CC[C@H]2C3)ncn1 [Example 317]
– | ≥ 150 | – | – | – | O=C(Nc1ccncc1F)N1c2nc(-c3cccc(C(F)(F)F)c3)ccc2N2CCC[C@H]1C2 [Example 42]
– | ≥ 150 | – | – | – | O=C(Nc1cncnc1)N1c2nc(-c3cccc(C(F)(F)F)c3)ccc2N2CCC[C@H]1C2 [Example 38]
– | ≥ 150 | – | – | – | O=C(Nc1ccc(F)cn1)N1c2nc(-c3cccc(C(F)(F)F)c3)ccc2N2CCC[C@H]1C2 [Example 39]
– | ≥ 150 | – | – | – | O=C(Nc1ccnc(OCC(O)CO)n1)N1c2nc(-c3cccc(Cl)c3)ccc2N2CC[C@H]1C2 (stereo partly shown) [Example 54]
– | ≥ 150 | – | – | – | O=C(Nc1ccnc(O[C@H]2CCOC2)n1)N1c2nc(-c3cccc(C(F)(F)F)c3)ccc2N2CC[C@H]1C2 [Example 16]
– | ≥ 150 | – | – | – | O=C(Nc1cccnc1)N1c2nc(-c3cccc(C(F)(F)F)c3)ccc2N2CC[C@H]1C2 [Example 17]
– | – | A (EC1.5<1 μM) | ≥ 150 | – | NC(=O)CN1CCC(c2cccc(NC(=O)N3c4nc(-c5cccc(C(F)(F)F)c5)ccc4N4CC[C@H]3C4)c2)C1 (stereo partly shown) [Example 594]
– | – | A (EC1.5<1 μM) | ≥ 150 | – | O=C(Nc1ccccn1)N1c2nc(-c3cncc(C(F)(F)F)c3)ccc2N2CCC[C@H]1C2 [Example 369]
A (EC1.5<1 μM) | ≥ 150 | – | – | – | O=C(Nc1cccc(-c2ccsc2)n1)N1c2nc(-c3cccc(C(F)(F)F)c3)ccc2N2CC[C@H]1C2 [Example 653]
– | ≥ 150 | – | – | A (EC1.5<1 μM) | COc1nccc(NC(=O)N2c3nc(-c4cccc(OC(F)(F)F)c4)ccc3N3CC[C@H]2C3)n1 [Example 176]
– | ≥ 150 | – | – | B (EC1.5 1-25 μM) | COc1ccc(C)nc1NC(=O)N1c2nc(-c3cccc(C(F)(F)F)c3)ccc2N2CC[C@H]1C2 [Example 77]
– | – | B (EC1.5 1-25 μM) | ≥ 150 | – | O=C(NCCN1CCOCC1)N1c2nc(-c3cccc(C(F)(F)F)c3)ccc2N2CC[C@H]1C2 [Example 616]
– | – | B (EC1.5 1-25 μM) | ≥ 150 | – | O=C(Nc1ccc(F)cn1)N1c2nc(-c3cccc(N4CCC(C(F)(F)F)C4)c3)ccc2N2CC[C@H]1C2 (stereo partly shown) [Example 321]
– | – | A (EC1.5<1 μM) | ≥ 150 | – | O=C(Nc1cccc(-c2cnco2)n1)N1c2nc(-c3cccc(C(F)(F)F)c3)ccc2N2CCC[C@H]1C2 [Example 590]
C (EC1.5>25 μM) | ≥ 150 | – | – | – | Cc1nccn1CCCNC(=O)N1c2nc(-c3cccc(C(F)(F)F)c3)ccc2N2CC[C@H]1C2 [Example 632]
A (EC1.5<1 μM) | ≥ 150 | – | – | – | O=C(Nc1cccc(CN2CCOCC2)c1)N1c2nc(-c3cccc(C(F)(F)F)c3)ccc2N2CC[C@H]1C2 [Example 629]

Continued, compound first:

SMILES | Tryp AVG EC1.5 (μM) [1] | Emax (Trp mass spectrometry assay) [%] | Tryp AVG EC1.5 (μM) [2] | Emax (Trp peptide substrate) [%] | Tryp AVG EC1.5 (μM) [3]
O=C(Nc1cccc(-c2cnco2)c1)N1c2nc(N3CCC[C@H](C(F)(F)F)C3)ccc2N2CC[C@H]1C2 [Example 718] | A (EC1.5<1 μM) | ≥ 150 | – | – | –
Cc1ccc(-c2ccc3c(n2)N(C(=O)Nc2ccccn2)[C@H]2CCN3C2)cn1 [Example 221] | – | – | B (EC1.5 1-25 μM) | ≥ 150 | –
CN1CCCN(c2ccc3c(n2)N(C(=O)Nc2ccncn2)[C@H]2CCCN3C2)CC1 [Example 484] | – | – | C (EC1.5>25 μM) | < 150 | –
C[C@@H](N)CS(=O)(=O)c1cccc(-c2ccc3c(n2)N(C(=O)Nc2cc(-c4ccnn4C)nc(-c4ccnn4C)c2)[C@H]2CCN3C2)c1 [Example 780] | A (EC1.5<1 μM) | ≥ 150 | – | – | –
Cn1nccc1-c1ccc2c(n1)N(C(=O)Nc1cnccn1)[C@H]1CCN2C1 [Example 414] | – | – | B (EC1.5 1-25 μM) | ≥ 150 | –
Cc1nc(NC(=O)N2c3nc(-c4cccc(N5CCCC5)c4)ccc3N3CC[C@H]2C3)sc1C [Example 187] | – | ≥ 150 | – | – | B (EC1.5 1-25 μM)
N#Cc1cc(-c2ccc3c(n2)N(C(=O)Nc2cnccn2)[C@H]2CCN3C2)ccc1F [Example 419] | – | – | A (EC1.5<1 μM) | ≥ 150 | –
Cc1nc(NC(=O)N2c3nc(-c4cncc(F)c4)ccc3N3CCC2CC3)sc1C [Example 577] | – | – | B (EC1.5 1-25 μM) | ≥ 150 | –
CN(C)c1cccc(-c2ccc3c(n2)N(C(=O)Nc2cnccn2)[C@H]2CCCN3C2)c1 [Example 403] | – | – | A (EC1.5<1 μM) | ≥ 150 | –
COc1cc(NC(=O)N2c3nc(-c4ccnc(N5CC[C@@H](F)C5)c4)ccc3N3CC[C@H]2C3)ncn1 [Example 424] | – | – | B (EC1.5 1-25 μM) | ≥ 150 | –
Cc1cc(C)nc(NC(=O)N2c3nc(N4CCCC(C(F)(F)F)C4)ccc3N3CCC[C@@H]2C3)c1 (stereo partly shown) [Example 301] | – | – | C (EC1.5>25 μM) | < 150 | –
Cc1cncc(NC(=O)N2c3nc(-c4cncc(C(F)(F)F)c4)ccc3N3C[C@@H](O)[C@H]2C3)c1 [Example 690] | B (EC1.5 1-25 μM) | ≥ 150 | – | – | –
O=C(Nc1cccnc1)N1c2nc(N3CCCC(C(F)(F)F)C3)ccc2N2CC[C@H]1C2 (stereo partly shown) [Example 229] | – | – | B (EC1.5 1-25 μM) | ≥ 150 | –
N#Cc1cccc(-c2ccc3c(n2)N(C(=O)Nc2ccc(F)cn2)[C@@H]2CCCN3C2)c1 [Example 227] | – | – | B (EC1.5 1-25 μM) | ≥ 150 | –
Cn1ncc2cc(NC(=O)N3c4nc(-c5cccc(OC(F)(F)F)c5)ccc4N4CC[C@H]3C4)ccc21 [Example 175] | – | ≥ 150 | – | – | A (EC1.5<1 μM)
Cc1nc(NC(=O)N2c3nc(C4CCCC(C(F)(F)F)C4)ccc3N3CC[C@H]2C3)sc1C (stereo partly shown) [Example 149] | – | ≥ 150 | – | – | B (EC1.5 1-25 μM)
Cc1cc(-c2ccc3c(n2)N(C(=O)Nc2ccccn2)[C@H]2CCN3C2)ccn1 [Example 220] | – | – | A (EC1.5<1 μM) | ≥ 150 | –
Cc1nc(NC(=O)N2c3nc(N4CCCC(C(F)(F)F)C4)ccc3N3CCC[C@H]2C3)sc1C (stereo partly shown) [Example 298] | – | – | B (EC1.5 1-25 μM) | ≥ 150 | –
O=C(Nc1ccccn1)N1c2nc(-c3cccnc3)ccc2N2CCC[C@H]1C2 [Example 441] | – | – | B (EC1.5 1-25 μM) | ≥ 150 | –
Cc1nc(NC(=O)N2c3nc(-c4cccc(N5CCOCC5)c4)ccc3N3CCC[C@H]2C3)sc1C [Example 537] | – | – | B (EC1.5 1-25 μM) | ≥ 150 | –
